The source of these data is ChEMBL document CHEMBL1275461, “Early bactericidal activity and pharmacokinetics of the diarylquinoline TMC207 in treatment of pulmonary tuberculosis” (Antimicrob Agents Chemother, 2008).

Each structure is given as a SMILES string. Converted amounts (≈) assume the structure as drawn. The source made the active and inactive calls.

In assay [1] the test system is Mycobacterium tuberculosis. As to the kind of experiment: Bactericidal activity against Mycobacterium tuberculosis selected on 100 times compound MIC measured after 6 days. The class given is functional, organism-based.
The subject of assay [2] is Mycobacterium tuberculosis. Nature of the assay: Antimicrobial activity against drug-resistant Mycobacterium tuberculosis. The format is functional.
In assay [3] the test system is Mycobacterium tuberculosis. Nature of the assay: Bactericidal activity against Mycobacterium tuberculosis selected on 10 times compound MIC measured after 6 days. The class given is functional, organism-based.

What is called MIC is the smallest concentration in the dilution series that meets the test's criterion for growth inhibition. For the molecule `COc1nc2ccc(Br)cc2cc1[C@@H](c1ccccc1)[C@@](O)(CCN(C)C)c1cccc2ccccc12` [BEDAQUILINE], the result in assay [1] and in assay [3] was Active. In assay [2], this molecule had an MIC of 0.03 µg/mL (≈ 0.054 µM).
